Tests used:
[1] = biological target: T1, human TLR7 (hTLR7) (Homo sapiens, UniProt Q9NYK1); test: Human TLR7 agonist activity assay (HEK-Blue TLR7 SEAP reporter); format: cell-based; conditions: HEK-Blue TLR7 cells, 18 h incubation, Quanti-Blue, OD 620 nm, some values average of multiple measurements
T1 construct: host or cells: HEK-Blue TLR7 cells (engineered human embryonic kidney cells)
T1 sequence (Q9NYK1 27-1049): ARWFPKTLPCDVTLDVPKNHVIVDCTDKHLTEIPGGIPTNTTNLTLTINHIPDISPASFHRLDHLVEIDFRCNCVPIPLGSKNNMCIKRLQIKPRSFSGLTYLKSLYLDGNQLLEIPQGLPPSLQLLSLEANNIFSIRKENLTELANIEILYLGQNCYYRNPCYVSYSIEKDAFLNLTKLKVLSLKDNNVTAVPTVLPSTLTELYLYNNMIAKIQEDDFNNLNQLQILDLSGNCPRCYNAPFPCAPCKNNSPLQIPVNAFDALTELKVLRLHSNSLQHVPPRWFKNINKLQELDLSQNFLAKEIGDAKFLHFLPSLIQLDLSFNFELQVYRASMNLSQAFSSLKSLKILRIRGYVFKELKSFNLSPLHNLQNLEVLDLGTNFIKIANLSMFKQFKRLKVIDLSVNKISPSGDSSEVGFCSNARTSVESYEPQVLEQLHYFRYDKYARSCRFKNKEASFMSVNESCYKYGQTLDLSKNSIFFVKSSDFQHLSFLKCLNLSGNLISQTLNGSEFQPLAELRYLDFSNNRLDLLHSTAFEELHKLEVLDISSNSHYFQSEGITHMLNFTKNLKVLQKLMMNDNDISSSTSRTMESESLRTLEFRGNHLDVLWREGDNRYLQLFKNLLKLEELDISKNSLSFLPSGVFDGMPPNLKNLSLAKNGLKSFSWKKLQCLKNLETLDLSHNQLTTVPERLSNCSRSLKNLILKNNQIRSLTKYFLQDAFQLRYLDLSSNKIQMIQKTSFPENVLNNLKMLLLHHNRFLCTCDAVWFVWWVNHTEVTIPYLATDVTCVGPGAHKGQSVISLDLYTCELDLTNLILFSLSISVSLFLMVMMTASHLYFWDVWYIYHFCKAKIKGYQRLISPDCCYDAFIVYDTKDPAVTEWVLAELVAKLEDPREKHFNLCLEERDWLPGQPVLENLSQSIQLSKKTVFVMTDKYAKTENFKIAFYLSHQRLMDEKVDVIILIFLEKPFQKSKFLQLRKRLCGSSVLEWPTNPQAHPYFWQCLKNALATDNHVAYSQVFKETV
In short: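 HEK-Blue TLR7 cells seeded 16-18 h, then exposed to compound for 18 h at 37 °C, 5% CO2. Secreted SEAP read with Quanti-Blue at OD 620 nm after 30 min. EC50 taken as concentration giving half-maximal response between baseline and maximum; some values averaged over repeats.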

[2] = biological target: T2, human TLR8 (hTLR8) (Homo sapiens, UniProt Q9NR97); test: Human TLR8 agonist activity assay (measured in a similar manner); format: cell-based; conditions: HEK-Blue TLR cells, SEAP reporter, measured in a similar manner to TLR7; some values average of multiple measurements
T2 construct: expressed in transfected cells
T2 sequence (Q9NR97 27-1041): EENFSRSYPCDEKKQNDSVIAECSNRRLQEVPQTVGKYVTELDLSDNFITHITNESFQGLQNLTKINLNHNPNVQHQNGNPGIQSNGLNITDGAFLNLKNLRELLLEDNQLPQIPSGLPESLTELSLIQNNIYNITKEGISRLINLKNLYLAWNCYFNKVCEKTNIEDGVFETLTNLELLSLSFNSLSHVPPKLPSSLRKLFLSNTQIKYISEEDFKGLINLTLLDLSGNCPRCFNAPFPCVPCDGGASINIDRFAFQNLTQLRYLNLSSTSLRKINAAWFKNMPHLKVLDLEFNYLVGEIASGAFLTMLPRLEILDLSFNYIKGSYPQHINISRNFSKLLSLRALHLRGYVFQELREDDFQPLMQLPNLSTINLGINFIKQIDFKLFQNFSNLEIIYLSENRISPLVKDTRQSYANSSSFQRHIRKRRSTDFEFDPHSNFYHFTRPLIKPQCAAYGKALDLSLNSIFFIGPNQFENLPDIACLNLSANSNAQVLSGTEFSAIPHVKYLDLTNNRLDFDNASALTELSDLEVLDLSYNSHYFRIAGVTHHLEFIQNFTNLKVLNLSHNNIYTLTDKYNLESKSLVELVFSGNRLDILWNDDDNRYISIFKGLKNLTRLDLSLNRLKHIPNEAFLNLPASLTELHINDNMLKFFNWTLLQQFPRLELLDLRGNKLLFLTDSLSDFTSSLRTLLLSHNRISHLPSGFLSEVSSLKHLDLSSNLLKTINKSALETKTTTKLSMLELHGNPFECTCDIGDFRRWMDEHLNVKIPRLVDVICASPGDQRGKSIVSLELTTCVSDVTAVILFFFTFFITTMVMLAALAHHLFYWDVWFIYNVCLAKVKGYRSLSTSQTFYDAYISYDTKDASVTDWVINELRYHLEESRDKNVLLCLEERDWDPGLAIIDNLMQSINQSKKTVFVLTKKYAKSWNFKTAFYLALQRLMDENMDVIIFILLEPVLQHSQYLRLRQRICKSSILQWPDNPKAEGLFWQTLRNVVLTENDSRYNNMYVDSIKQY
In short: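 Compounds were added to HEK-Blue TLR8 reporter cells, pre-incubated 16-18 h, then treated 18 h at 37° C, 5% CO2. SEAP output was measured with Quanti-Blue (30 min) at OD 620 nm. Some values are averages of multiple measurements.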

Row | SMILES | EC50 [1] [nM] | EC50 [2] [nM]
1 | CCCCN(CCO)c1nc(N)nc2cn(Cc3ccc(CNC(C)(C)C)n4ncnc34)nc12 [Compound 189, 2-((5-Amino-2-((5-((tert-butylamino)methyl)-[1,2,4]triazolo[1,5-a]pyridin-8-yl)methyl)-2H-pyrazolo[4,3-d]pyrimidin-7-yl)(butyl)amino)ethan-1-ol] | 793 | 570
2 | CCCCN(CCO)c1nc(N)nc2cn(Cc3ccc(CNCCOC)cc3OC)nc12 [Compound 10] | 1330 | 1450
3 | CCCCN(CCO)c1nc(N)nc2cn(Cc3c(F)cc(C4=CCC(NC5CCOCC5)CC4)cc3OC)nc12 (centres unmarked) [Compound 190] | 563 | 1680
4 | CCCCN(CCO)c1nc(N)nc2cn(Cc3ccc(CNC4CCCC4)c4cccnc34)nc12 [Compound 61] | 1500 | 952
5 | CCCCN(CCO)c1nc(N)nc2cn(Cc3ccc(CN[C@@H]4CCCN(C(=O)OC)C4)c4cccnc34)nc12 [Compound 185, Methyl (R)-3-(((8-((5-amino-7-(butyl(2-hydroxyethyl)amino)-2H-pyrazolo[4,3-d]pyrimidin-2-yl)methyl)quinolin-5-yl)methyl)amino) piperidine-1-carboxylate] | 499 | 508
6 | CCCCN(CCO)c1nc(N)nc2cn(Cc3ccc(CN[C@@H]4CCOC4)c4oc(C)nc34)nc12 [Compound 142] | 1630 | 915
7 | CCCCN(CCO)c1nc(N)nc2cn(Cc3ccc(CNCCOC)c4nccnc34)nc12 [Compound 208] | 1890 | 1270
8 | CCCCN(CCO)c1nc(N)nc2cn(Cc3cc(OC)c(C4CCN(CCOC)CC4)cc3OC)nc12 [Compound 106] | 1140 | 2500
9 | CCCCN(CCO)c1nc(N)nc2cn(Cc3ccc(CNC4CCC4)c4scnc34)nc12 [Compound 184] | 401 | 310
10 | CCCCN(CCO)c1nc(N)nc2cn(Cc3ccc(CNC4CCOCC4)cc3C(F)F)nc12 [Compound 100] | 1760 | 1420
11 | CCCCN(CCO)c1nc(N)nc2cn(Cc3ccc(CNCC4CCC4)cc3C(F)F)nc12 [Compound 130] | 1900 | 1880
12 | CCCCN(CCO)c1nc(N)nc2cn(Cc3ccc(CN4CC5(C4)CN(C(C)C)C5)cc3OC)nc12 [Compound 30] | 1410 | 1620
13 | CCCCN(CCO)c1nc(N)nc2cn(Cc3cc(OC)c(C4CCN(C5CC6(COC6)C5)CC4)cc3OC)nc12 [Compound 109] | 1460 | 1990
14 | CCCCN(CCO)c1nc(N)nc2cn(Cc3cc(OC)c(C4CCN(CC(C)(C)O)CC4)cc3OC)nc12 [Compound 107] | 1280 | 3030
15 | CCCCN(CCO)c1nc(N)nc2cn(Cc3c(F)cc(C4CCN(CC(C)(C)O)CC4)cc3OC)nc12 [Compound 36] | 144 | 525
16 | CCCCN(CCO)c1nc(N)nc2cn(Cc3c(F)cc(CNCCOC)cc3F)nc12 [Compound 114] | 1060 | 1830
17 | CCCCN(CCO)c1nc(N)nc2cn(Cc3c(F)cc(C4CCN(CCOC)CC4)cc3C#N)nc12 [Compound 149] | 561 | 1810

Row | SMILES | EC50 [1] [nM] | EC50 [2] [nM]
18 | CCCCN(CCO)c1nc(N)nc2cn(Cc3ccc(CN[C@H]4C[C@H](OC)C4)n4ncnc34)nc12 [Compound 174] | 757 | 1450
19 | CCCCN(c1nc(N)nc2cn(Cc3ccc(CN4CCCCC4)cc3OC)nc12)C(C)CO (racemic) [Compound 49, 2-((5-amino-2-(2-methoxy-4-(piperidin-1-ylmethyl)benzyl)-2H-pyrazolo[4,3-d]pyrimidin-7-yl)(butyl)amino)propan-1-ol] | 385 | 682
20 | CCCCN(CCO)c1nc(N)nc2cn(Cc3c(F)cc(CN4CC5(COC5)C4)cc3OC)nc12 [Compound 83] | 511 | 2260
21 | CCCCN(CCO)c1nc(N)nc2cn(Cc3ccc(CN[C@H]4CCOC4)cc3C(F)F)nc12 [Compound 99] | 1910 | 1580
22 | CCCCN(CCO)c1nc(N)nc2cn(Cc3ccc(CNC(C)(C)C)cc3OC)nc12 [Compound 7] | 969 | 602
23 | CCCCN(CCO)c1nc(N)nc2cn(Cc3ccc(CNC(C)C)cc3)nc12 [Compound 162] | 1570 | 805
24 | CCCCN(CCO)c1nc(N)nc2cn(Cc3c(F)cc(C4CCN(C5CCOCC5)CC4)cc3OC)nc12 [Compound 37, 2-((5-amino-2-(2-fluoro-6-methoxy-4-(1-(tetrahydro-2H-pyran-4-yl)piperidin-4-yl)benzyl)-2H-pyrazolo[4,3-d]pyrimidin-7-yl)(butyl)amino)ethan-1-ol] | 176 | 516
25 | CCCCN(CCO)c1nc(N)nc2cn(Cc3ccc(CN[C@@H]4COC[C@@H]4F)cc3OC)nc12 [Compound 54] | 1330 | 1500
26 | CCCCN(CCO)c1nc(N)nc2cn(Cc3ccc(CNC4C[C@@H](C)O[C@@H](C)C4)cc3OC)nc12 (some centres unmarked) [Compound 166] | 694 | 529
27 | CCCCN(CCO)c1nc(N)nc2cn(Cc3c(F)cc(C4=CCC(N(CCO)CCO)CC4)cc3OC)nc12 (centres unmarked) [Compound 197] | 570 | 2740
28 | CCCCN(CCO)c1nc(N)nc2cn(Cc3ncc(CNC4CCC4)cc3OC)nc12 [Compound 182] | 865 | 1770
29 | CCCCN(CCO)c1nc(N)nc2cn(Cc3ccc(CNC4CCOC4(C)C)cc3OC)nc12 (centres unmarked) [Compound 153] | 615 | 306
30 | CCCCN(CCO)c1nc(N)nc2cn(Cc3ccc(CN[C@H]4C[C@H](OC)C4)n4ccnc34)nc12 [Compound 188] | 781 | 1400
31 | CCCCN(CCO)c1nc(N)nc2cn(Cc3cc(OC)c(C4CCN(C(C)C)CC4)cc3OC)nc12 [Compound 110] | 39 | 702
32 | CCCCN(CCO)c1nc(N)nc2cn(Cc3ccc(CNC4CCOC(C)(C)C4)cc3OC)nc12 (single isomer, unassigned) [Compound 112, 2-((5-Amino-2-(4-(((2,2-dimethyltetrahydro-2H-pyran-4-yl)amino)methyl)-2-methoxybenzyl)-2H-pyrazolo[4,3-d]pyrimidin-7-yl)(butyl)amino) ethan-1-ol] | 585 | 562
33 | CCCCN(CCO)c1nc(N)nc2cn(Cc3c(F)cc(C4CCN(CCO)CC4)cc3OC)nc12 [Compound 35] | 551 | 1850
34 | CCCCN(CCO)c1nc(N)nc2cn(Cc3ccc(CN[C@@H]4CCCN(C(C)=O)C4)c4cccnc34)nc12 [Compound 186] | 1690 | 3490
